Where two headings read alike, the source gives them in different places. Marks after values point to notes of the source that are not given here.
Experiments:
[1] = LC–MS/MS analysis of serum and urine samples of intoxication cases; type: in vivo, human; conditions: patient serum
Method: (§1) The data on intoxication cases used for the development of this risk score were obtained from a prospective study. This study included patients who were treated in an emergency department room following the consumption of an NPS. Clinical symptoms and follow‐up information were documented using a structured questionnaire completed by the attending physicians. The methodology has been previously published. Residual serum (obtained from venous blood) and urine samples, accompanied by the completed questionnaires, were sent to the Poisons Information Center Freiburg for further analysis. The toxicological analyses of serum and urine samples were conducted at the Institute of Forensic Medicine Freiburg. No data was available on previous consumption patterns or potential development of tolerance after continued misuse. The study was conducted in accordance with the Declaration of Helsinki and approved by the regional ethics committee of the University of Freiburg (no. 235/13_130683). The intoxication cases included in this study are those in which SCRA use was confirmed by liquid chromatography tandem mass spectrometry (LC–MS/MS).
Serum/blood and urine analyses were conducted at the Institute of Forensic Medicine Freiburg using previously published LC–MS/MS methods, that were modified by adding further analytes present in ‘legal‐high’ products (‘herbal blends’, ‘C‐liquids’ or ‘research chemicals’), and covered approximately 100 different SCRAs. Detailed information can be found in the Supporting Information.
Urine samples were analysed according to previously published and validated method by Franz et al.^2. For sample preparation 0.5 mL of phosphate buffer (pH 6) and 30 μL of β-glucuronidase were added to 0.5 mL of urine. Incubation was for 60 min at 45°C. This was followed by protein precipitation using 1.5 mL acetonitrile containing the internal standard (c = 2 ng/mL) and 0.56 mL 10 M ammonium formate solution, followed by shaking and centrifugation. 1 mL of the organic phase was transferred into an autosampler vial and evaporated to dryness under N2. The samples were reconstituted in 200 μL mobile phase.
Urine sample analysis was performed on a Dionex UltiMate® 3000RS UHPLC (Thermo Scientific, Dreieich, Germany) coupled to an API 5000^TM triple quadrupole instrument with a TurboIonSpray® interface (Sciex, Darmstadt, Germany). Separation was performed on a Luna C18 100 Å (150 x 2 mm, 5 μm) column with the mobile phase consisting of 0.2% HCOOH and 2 mmol/L NH^4+HCOO^− in water (A) and acetonitrile (B).

[2] = risk score from prevalence in routine forensic samples and intoxication cases (G1, PSS, TSS); parameters: species or system human
Source text: Therefore, higher values indicate substances with a higher risk. […] To take into account the severity of symptoms and the contribution of the specific NPS, two further summands were introduced. The first is based on the PSS, the second on the TSS. Again, higher values were associated with more severe symptoms and a stronger role of the NPS in causing the symptoms.
The risk score is composed of three components (parts G1, G2 and G3) and was designed as follows: (1) Gx=G1x+G2x+G3x,
Equation 2 takes into consideration several components: the number of intoxications with SCRA x in quarter k over the total number of intoxications of all investigated SCRAs in the same quarter; the number of serum/blood samples positive for SCRA x over the total number of serum/blood samples positive for all SCRAs plus the number of urine samples positive for SCRA x over the total number of urine samples positive for all SCRAs (this is divided by two to account for the two different sample types); and the number of quarters in which the SCRA x was prevalent. (2) G1x=∑k=1gak/bk/ck/dk+ek/fk/2/h+i
Consequently, equation 2 was mathematically rearranged. To further simplify the equation and reduce the formula signs, in equation 3 the following simplifications were taken: a/b=ai , c/d=as and e/f=au .
The sum of these quotients was divided by the number of all prevalent quarters (q p ). Prevalent quarters were defined as quarters in which on average the substance was detected in more than 5% of the positive serum and urine samples. If a poisoning occurred in a quarter in which the substance was not prevalent, the number of these quarters was added (q i ). This part of the score has similarities with an OR [42]. If the proportion of routine samples in a given quarter in which an intoxication with the respective substance occurred was zero (a s + a u = 0), a value of 0.01 was used for that quarter in the calculation of the quotient to avoid division by zero.
For part G2, the severity of the intoxication caused by the respective SCRA x was assessed on the basis of reported symptoms and follow‐up information using the PSS [20]. The PSS classifies the intoxication severity into five levels: (0) no, (1) mild, (2) moderate, (3) severe, and (4) fatal intoxication. […] For this purpose, the mean value of the PSS of all intoxications with the respective SCRA x was calculated ( G2x) .
For part G3, the involvement of the SCRA in the respective intoxications was assessed. This was evaluated on the basis of the TSS [21]. Elliott et al. developed the TSS to assess and classify the contribution of NPS in fatalities. In the present study, the TSS was determined to weigh the involvement of the investigated SCRA in the intoxication and the contribution of the SCRA to the observed symptoms. To determine the TSS value, factors such as the determined concentration of the SCRA, the presence of other recreational drugs or medicinal drugs, the general health of the patient and the consumption circumstances need to be considered. […] In cases with more than one drug detected, a TSS of 3 was only assigned where other compounds were present at concentrations below the range in which relevant effects are to be expected.
For the risk score, the mean value of the TSS of all intoxications with substance x was calculated ( G3x) . Analogous to the value of G2x , the value of G3x can theoretically be between 1 and 3. With a value of ‘1’, substance x was not mainly responsible for the symptoms in all of the intoxications (low level of significance), and with a value of ‘3’, it was the main cause in every poisoning in which it was detected.

[3] = occurrence of SCRAs in intoxication samples of the prospective study; parameters: species or system human; conditions: 2013 to 2021
Source text: For this study, the 10 SCRAs (AB‐[…], ADB‐[…], AB‐FUBINACA, FUB‐AMB, Cumyl‐PEGACLONE, MDMB‐4en‐PINACA, MDMB‐CHMICA, 5F‐MDMB‐PICA, 5F‐ADB and 5F‐PB‐22) which were most frequently detected in intoxications in a prospective observational study during the time period of 2013 to 2021 were selected (see Table 1). Additionally, JWH‐210, a model compound representative of the early SCRAs, along with two substances prevalent in screenings during years 2019/2020 (5F‐Cumyl‐PEGACLONE and 4F‐MDMB‐BICA), were included in this study (see Tables S2–S7). […] JWH‐018 was also included as a reference compound because of its historical use in this capacity. Including both reference compounds facilitates direct comparison with previously published data, thereby enhancing the relevance and interpretability of the results obtained in the present study. Information on the origin of the test and reference compounds and all chemicals used in this study can be found in Table S1.
as §1

hCB1 receptor [4] = target: T1, hCB1 receptor (Homo sapiens, UniProt P21554); experiment: functional [35S]GTPγS hCB1 activation assay; type: biochemical
T1 sequence (P21554 whole entry): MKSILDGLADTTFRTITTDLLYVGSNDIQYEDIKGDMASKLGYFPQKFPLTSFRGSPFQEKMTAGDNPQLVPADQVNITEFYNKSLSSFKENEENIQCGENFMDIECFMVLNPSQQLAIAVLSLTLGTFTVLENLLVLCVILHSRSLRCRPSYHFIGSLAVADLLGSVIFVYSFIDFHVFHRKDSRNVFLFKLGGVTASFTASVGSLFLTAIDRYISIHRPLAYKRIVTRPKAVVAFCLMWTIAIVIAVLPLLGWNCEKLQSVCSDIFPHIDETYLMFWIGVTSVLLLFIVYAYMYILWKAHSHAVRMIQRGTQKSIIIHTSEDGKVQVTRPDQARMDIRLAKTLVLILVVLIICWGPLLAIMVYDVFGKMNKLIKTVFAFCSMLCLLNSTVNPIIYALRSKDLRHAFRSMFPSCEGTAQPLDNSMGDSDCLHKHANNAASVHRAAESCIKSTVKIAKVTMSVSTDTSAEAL
Method: (§2) Receptor assays were performed on three different days and each concentration was tested in duplicate.

hCB1 receptor [5] = target: T1, hCB1 receptor; experiment: competitive [3H]CP‐55940 radioligand binding assay (hCB1 receptor affinity); conditions: Ki [nM] (95% CI), [3H]CP‐55940 competition, hCB1 membrane preparations (HEK293‐EBNA), Cheng–Prusoff; 95% CI in brackets
Method: as §2
From the IC50, the respective Ki values were calculated using the Cheng–Prusoff equation [39].

hCB1 receptor [6] = target: T1, hCB1 receptor; conditions: ref Wouters et al. [31], cited from earlier work
hCB1 receptor [7] = target: T1, hCB1 receptor; parameters: method as in Gamage et al. [40]; conditions: cited from earlier work
[8] = intoxication case B (AB‐CHMINACA)

CCCCCn1nc(C(=O)c2cccc3ccccc23)c2ccccc21 [THJ-018]
Concentration in serum [1, 8]: < 0.1 ng/mL

O=C(Oc1cccc2cccnc12)c1cn(CCCCCF)c2ccccc12 [5F‐PB‐22]
G total (risk score) ([2]; G1+G2+G3, higher value = greater toxicological risk): 9.9
G2 ([2]; mean Poison Severity Score (PSS) of all intoxications with the SCRA): 1.9
G3 ([2]; mean Toxicological Significance Score (TSS) of all intoxications with the SCRA): 2.7
G1 ([2]; proportion in intoxication cases relative to prevalence in routine serum/blood and urine samples per quarter, 2013–2021, >1 over‐represented in intoxications): 5.3
No. of intoxications ([3]; 139 intoxication samples of the prospective study): 13
Percentage in % ([3]; proportion of 139 intoxications in which the substance was detected): 9.4%
EC50 (hCB1 receptor [4]): 2.73 nM
Emax (hCB1 receptor [4]; read-out: [35S]‐GTPγS assay Emax [%] (95% CI)): 124%
Concentration in serum [1, 8]: ~1.5 ng/mL
Ki (hCB1 receptor [5]): 0.0996 nM
EC50 (hCB1 receptor [6]; read-out: βarr2 assay EC50 [nM] (95% CI)): 0.32 nM
βarr2 assay Emax [%] (95% CI) (hCB1 receptor [6]; relative to CP‐55940): 980.2 ^d (888.2–1072) %

O=C(c1cccc2ccccc12)c1nn(CCCCCF)c2ccccc12 [THJ-2201]
Concentration in serum [1, 8]: < 0.1 ng/mL

CNC(C)C(=O)c1cccc(C)c1 (stereo not shown) [3‐MMC]
Concentration in serum ([1]; intoxication case A (AB‐CHMINACA)): 320 ng/mL
Concentration in serum ([1]; intoxication case A (AB‐CHMINACA), listed as 3-MMC): ~3-MMC approximately 320 ng/mL

O=C(NC12CC3CC(CC(C3)C1)C2)c1nn(CCCCCF)c2ccccc12 [5F-AKB-48]
Concentration in serum [1, 8]: < 0.1 ng/mL

COC(=O)C(NC(=O)c1nn(Cc2ccc(F)cc2)c2ccccc12)C(C)C (stereo not shown) [FUB‐AMB]
EC50 (hCB1 receptor [7]; read-out: [35S]‐GTPγS assay EC50 [nM] (95% CI), ref Gamage et al. [40]): 0.543 nM
[35S]‐GTPγS assay Emax [%] (95% CI) (hCB1 receptor [7]; relative to CP‐55940, cell without footnote mark, EC50 of the same line from ref Gamage et al. [40]): 69.42 (62.6–76.2) %

Reference: publication PMC12980303, “Development of a novel risk score reflecting the relative harm potential of synthetic cannabinoids based on prevalence estimates, well‐documented intoxication cases and basic pharmacological data” (Addiction (Abingdon, England), 2025)
